# Test results: patent publication US10174348B2, “Bacteria engineered for ester production” (priority 2013, dated 2019)
# Legend:
# JCL260 = JCL260 without the acetate assimilating pathway; 10 g/L acetate
# Procedure: (§1) Growth of strains in culture medium containing 10 g/L glucose, 10 g/L acetate, or 10 g/L glucose and 10 g/L acetate was compared. Cells were grown at 37° C. on a rotary shaker (250 rpm). Overnight cultures were grown in 3 mL Luria Broth containing appropriate antibiotics. The overnight cultures were inoculated 1% in 5 mL M9 minimal media (containing appropriate antibiotics and 1 mM IPTG) and labeled carbon source in 15-ml screw-cap tubes.
# (§2) Next, the growth of JCL260 and AL2045, which contains ΔaceEF with and without the acetate assimilating pathway (ackA-pta), was compared (FIG. 21).
# AL2045 = AL2045 with the acetate assimilating pathway (ackA-pta); 10 g/L acetate
# Procedure: as §1, §2
# [1] = Partitioning between hexadecane layer and culture during production; assay type: physicochemical; details: equal volume of hexadecane over the culture
# Procedure: Cells were grown in 20 mL media in 250 mL screw-cap flasks at 37° C. until OD600 0.4, then 1 mM IPTG was added. […] Errors are SD (n=3). […] Then 20 mL of culture was transferred to a 250 mL screw-cap flask. […] The strong agitation at which the flask was shaking caused the hexadecane layer to become an emulsion with micelles of culture, but the majority of the culture layer underneath is discernible. The cultures were allowed to produce at 30° C. on a rotary shaker (250 rpm) for 24-96 h. […] For hexadecane layer assisted isobutyl acetate production, the centrifugation of the hexadecane samples separates the aqueous and hexadecane layer into two clear layers. […] The same volume of ethyl acetate (Sigma-Aldrich) as culture was added into the tubes to extract tetradecyl acetate and isobutyl isobutyrate after production at room temperature. These samples were mixed for 1 min and settled for 30 min on ice. The each sample was centrifuged with 20,000×g for 1 min. Then, 1 mL of supernatant was taken for GC analysis.
# [2] = system: pyruvate dehydrogenase complex; test: KDHC activity assay, negative control strain lysate; assay type: biochemical, E. coli; details: 25 mM 2-keto acid, 30° C.
# Procedure: Cells were grown to an OD600 of ˜0.4 in 5 mL LB medium at 37° C., followed by adding 1 mM IPTG. Protein expression was performed at 30° C. for 2 h. Then 1.8 mL of cells were centrifuged at 16,000×g for 10 min, resuspended in 300 μL BugBuster Protein Extraction Reagent (Novagen), and incubated at room temperature for 20 min for cell lysis. Then samples were centrifuged for 20 min, 16,000×g, at 2° C. The soluble fractions were transferred to chilled 1.5 mL tubes, and the insoluble fractions were suspended in 200 μL BugBuster forming a slurry and kept on ice. KDHC activities were measured by following the conversion of 2-keto acids to acyl-CoA with NAD^+ at 340 nm at 30° C. using a Synergy H1 Hybrid Plate Reader (BioTek Instruments, Inc.). […] Protein concentrations were measured using 5× Advanced Protein Assay Reagent (Cytoskeleton Inc.). […]
# To confirm the activity of KDHC, cell lysates from each strain were prepared and activity was tested in vitro with pyruvate, 2-ketovalerate, 2-ketoisovalerate, 3-methylketovalerate, or 4-methylketovalerate as substrate. Activity was measured by detecting the reduction of NAD^+ in the presence of CoA. […]
# [3] = cited from earlier work
# E. coli JCL260 = test: Effect of isobutyl acetate on E. coli growth (toxicity experiments); assay type: cell-based; details: 3 g L^−1 isobutyl acetate; JCL260, 30° C., M9P with 50 g L^−1 glucose
# Procedure: JCL260 was grown at 30° C. in 5 mL M9P media containing 50 g L^−1 glucose in 15 mL screw-cap tubes. Black Arrow indicates the time point when isobutyl acetate: none (light gray), 1 g L^−1 (black), or 3 g L^−1 (dark gray) was added into culture. Error bars are SD (n=3).
# This strain produced 4.5-fold more isobutyl acetate (2.7 g L^−1) in the first 24 h compared to JCL260 (FIG. 12b-c). This production represents 60% of the theoretical maximum yield (0.42 g isobutyl acetate/g glucose).
compound,measurement,setting,value
CC(=O)O [Acetate],effect of acetate on growth,JCL260,inhibited the growth
same,effect of acetate on growth,AL2045,enhanced the growth
CC(C)CO [isobutanol],remained in the culture,[1],86%
CCCC(=O)C(=O)O [2-ketovalerate],activity of negative control strain with 2-keto acid as substrate,[2],30 nmol NADH/min/mg protein
"CC(C)COC(=O)C(C)C [Isobutyl isobutyrate, isobutyl isobutyrate]",water solubility,[3],520 µg/mL
CC(=O)OCC(C)C [isobutyl acetate],E. coli growth in the presence of isobutyl acetate,E. coli JCL260,unable to grow
same,extracted into the hexadecane,[1],97%
